Data published in patent US20160051543A1 (CHANRX CORPORATION, priority 2013, published 2016).

What was measured:
clinical = details: human, in vivo
Source text: The results are listed below in Table 7.

[1] = human, in vivo
Protocol: A standardized meal was served 15 minutes prior to each dosing.
The non-linear kinetics may be due to increasing bioavailability at higher doses based on a saturation of first pass metabolism.

[2] = test system: recent onset symptomatic AF/AFL; assay: Double-blinded placebo-controlled study, conversion of recent onset symptomatic AF/AFL to sinus rhythm (Example 6); type: in vivo, human
Protocol: (§1) The vanoxerine or identical appearing placebo was randomly assigned and administered in a double-blinded fashion.
Accordingly, a measurement of the improvement comprises a comparison to the rate of conversion of placebo, wherein the improvement is based on the percent increase in conversion over placebo. The 200 mg, having an improvement of conversion of 38%, 96%, and 55% at the above time points, 300 mg: 207%, 126%, and 68%, and the 400 mg: 300%, 230%, and 121%.
Definition of “pure” atrial flutter: only Atrial Flutter (no AF) seen at −30, −15, and 0 time points. Conversion at any time within 24 hours.
The highest oral dose of 400 mg achieved a conversion rate of 76% at 8 hours and 84% within 24 hours.

[3] = Adverse events in the AF/AFL conversion study (Example 6); type: in vivo, human
Source text: as §1

[4] = cited from earlier work
[5] = test system: conversion to normal sinus rhythm; assay: Human plasma concentration charted against conversion to normal sinus rhythm; type: in vivo
Protocol: This study favorable compares favorably to human models where plasma concentration is charted against conversion to normal sinus rhythm. […] However, most conversions occurred in the range of about 60 ng/ml. Accordingly, modifying doses to reach 60 ng/ml or higher is preferred for effective conversion to normal sinus rhythm.

[6] = Daily dosing for 7 days in four patients (Example 4); type: in vivo, human
[7] = between patients; cited from earlier work
[8] = Plasma concentrations after a single 300 mg dose of vanoxerine in 25 patients (Example 1); type: in vivo, human; details: any time point
Protocol: Each patient gave samples before administration of their dose, and then again at nine further time points, 30 minutes after administration, 1, 2, 3, 4, 6, 8, 12, and 24 hours post administration.

[9] = cited from earlier work; remark: listed apart in the source

PK linearity / dose proportionality (clinical): linear and dose proportional
TMax (mean +− SD) (clinical): TMax 1.27 +− 0.5 hr
TMax range (clinical; 50 mg): (0.5-2.0) hr
half-life (clinical; 50 mg): 4.71 to 111 h
half-life (clinical; 75 mg): 10.3 to 117 h
half-life (clinical; 100 mg): 5.56 to 125 h
All patients achieved steady state after [1]: 7 to 10 days
Steady-state plasma concentrations achieved after [1]: 3 days
Time to steady-state levels ([6]; all patients, 50, 100, 150 mg daily): within one week
Highest plasma level, low concentration group [8]: ~40 ng/mL
Compound: Fc1ccc(C(OCCN2CCN(CCCc3ccccc3)CC2)c2ccc(F)cc2)cc1 [Vanoxerine, 1-[2-[bis(4-fluorophenyl)methoxy]ethyl]-4-(3-phenylpropyl)piperazine]
Dose proportionality of steady-state serum levels [1]: disproportionately and statistically greater levels at higher doses
Improvement of conversion (percent increase over placebo) ([2]; 200 mg, 0-4 hours): 38%
Improvement of conversion (percent increase over placebo) ([2]; 200 mg, 0-8 hours): 96%
Improvement of conversion (percent increase over placebo) ([2]; 200 mg, 0-24 hours): 55%
Improvement of conversion (percent increase over placebo) ([2]; 300 mg, 0-24 hours): 68%
Improvement of conversion (percent increase over placebo) ([2]; 400 mg, 0-4 hours): 300%
Improvement of conversion (percent increase over placebo) ([2]; 400 mg, 0-8 hours): 230%
Dose dependence of conversion to sinus rhythm ([2]; doses of 200, 300 and 400 mg): highly statistically significant dose dependent increase
Number of adverse events reported ([3]; 200 mg (22)): 8 AEs
Number of serious adverse events ([3]; 200 mg (22)): 1 SAE
Number of adverse events reported ([3]; 300 mg (25)): 12 AEs
Number of adverse events reported ([3]; 400 mg (25)): 23 AEs
Number of serious adverse events ([3]; 400 mg (25)): 1 SAE
Tolerability ([3]; all doses): well tolerated at all doses
1:1 AFL post dose ([3]; any subject): No 1:1 AFL seen post dose in any subject
Proarrhythmia ([3]; conversion of recent onset symptomatic AF and AFL): absence of proarrhythmia
Serious adverse events in the study ([3]; one at 200 mg, one at 400 mg, neither related to the study drug): two
AUC ([4]; fasting (no food intake for eight hours)): lowest AUC
Cmax ([4]; high-fat diet (about 73 g fat) versus fasting and low-fat): significantly increased Cmax
Time the concentration remains elevated ([4]; high-fat diet): four to six hours
tmax ([4]; high-fat diet): nearly two and a half hours
Concentration at which most conversions occurred [5]: about 60 ng/ml
Systolic blood pressure and heart rate ([6]; 100 mg for 7 days): increases in systolic blood pressure and heart rate were seen
Difference in Cmax concentrations or AUC between slower and higher metabolism groups [7]: ≥ 10 fold
Plasma half-life ([9]; in vivo): about 22 hours
Steady state achieved within ([9]; oral dosing, some cases): ≤ 3 days
